Measured values reported in patent publication US20170216240A1, “METHODS FOR MODULATING IKS CHANNEL ACTIVITY” (UNIVERSITY OF MIAMI, priority 2014, published 2017).
“Also recorded” adds a separate entry of the source.

System: isolated embryonic rat cardiomyocytes
Assay: Spontaneous action potentials in rat cardiomyocytes, whole-cell patch clamp
Assay type: cell-based
Settings: for effect on arrhythmic firing induced by Chromanol 293B: 30 μM N-AT in the presence of 5 μM Chromanol 293B
Method: On gestation day (GD) 16 of pregnancy time-mated Sprague Dawley rats (Taconic, Denmark) were sacrificed in a CO2 chamber followed by cervical dislocation. Cell preparation of cardiomyocytes and culturing on glass coverslips were made (Danielsson, C. et al. Cardiovasc Res 97, 23-32 (2013)). Spontaneous action potentials were measured using the patch-clamp technique, whole cell configuration, 1-3 days after culturing. An Axopatch 200B patch-clamp amplifier, Digidata 1140A converter (Molecular Devices) and pClamp software (Molecular Devices) were used to acquire data. The extracellular solution contained (in mM): 140 NaCl, 5.4 KCl, 1 MgCl2, 1.8 CaCl2, 10 Glucose and 10 HEPES (pH 7.4, adjusted with NaOH). The intracellular solution contained (in mM): 130 K-gluconate, 9 KCl, 8 NaCl, 10 EGTA, 1 MgCl2, 10 HEPES and 3 MgATP (pH 7.3, adjusted with KOH). The solutions were perfused through the recording chamber (flow: 0.5 mL/min). All chemicals were purchased from Sigma-Aldrich. […] All experiments were carried out at 35° C. To analyze action potential characteristics a stable 60-seconds recording was selected before and after application of the test solution. The average data were then calculated for the complete trace in Clampfit 10 (Molecular Devices). Liquid junction potential was not adjusted for.
Average values are expressed as mean±SEM. Mean values for shifts in voltage dependence were analyzed using a two-tailed one samplet-test where mean values were compared with a hypothetical value of 0 or where mean values were compared to each other. Effects of N-AT on action potential peak amplitude and RMP in cardiomyocytes were analyzed using paired two-tailed t-test. Effects of N-AT on the relative change of APD and RR-interval were analyzed using two-tailed one samplet-test where mean values were compared with a hypothetical value of 1. P<0.05 is considered as statistically significant.
The effect of N-arachidonoyl taurine on isolated embryonic rat cardiomyocytes was tested. A sub-saturating concentration of the IKs channel blocker Chromanol 293B, which is known to induce arrhythmia (Aiba, T. et al. J Am Coll Cardiol 45, 300-307 (2005)), was applied to the cardiomyocytes. In general, two types of effects are seen upon Chromanol 293B application: (1) arrhythmic firing (FIG. 8A-B) or (2) a slowing of the frequency of spontaneous action potential firing (FIG. 8D-E). The different effects are most likely due to different subtypes of cardiomyocytes. […] The anti-arrhythmic effect of N-arachidonoyl taurine was associated with a shortening of the cardiomyocyte action potential duration and an increase in the frequency of action potential firing (FIG. 8G-I, Table 2). 30 μM N-arachidonoyl taurine had no effect on the resting membrane potential (Table 2) but decreased the action potential peak amplitude by −9±1 mV (Table 2).
Cardiomyocytes were isolated from rat heart and the spontaneous electrical activity in the cardiomyocytes was measured using the current clamp mode of patch clamp. […] Further, arrhythmia was induced in these cardiomyocytes by the IKs specific drug chromanol. In the presence of 5 μM chromanol, there are clearly additional action potentials caused by early after depolarizations (EADs) (FIG. 9D). EADs are known to accompany Long QT and could lead to ventricular fibrillation and cardiac sudden death in the intact heart. […] N-AT and chromanol are known to bind to different parts of the IKs channels (chromanol is a pore blocker, whereas N-AT is binding to the voltage sensor), so this effect of N-AT is not just a competition with chromanol to the same binding site. Rather, N-AT increases the currents by attracting the voltage sensor, whereas chromanol is known to block the currents by binding to the pore.

[1] = 30 μM N-AT vs control, listed as N-arachidonoyl taurine

**Q.** Which “APD30, Mean ± SEM” value (30 μM N-AT) does the source give for `CCCCC/C=C\C/C=C\C/C=C\C/C=C\CCCC(=O)NCCS(=O)(=O)O` [N-AT, N-arachidonoyl taurine] here?
**A.** 211 ± 37 ms

**Q.** And the “APD50, Mean ± SEM” value (30 μM N-AT)?
**A.** 279 ± 47 ms

**Q.** And the “APD70, Mean ± SEM” value (30 μM N-AT)?
**A.** 336 ± 50 ms

**Q.** And the “Amplpeak (peak action potential amplitude), Mean ± SEM” value (30 μM N-AT)?
**A.** 32 ± 2 mV

**Q.** And the “RMP (resting membrane potential), Mean ± SEM” value (30 μM N-AT)?
**A.** −56 ± 2 mV

**Q.** What about the “RR-interval, Mean ± SEM” value (30 μM N-AT) of the same compound?
**A.** 2075 ± 197 ms

**Q.** What about the “length of the ventricular action potential / action potential duration” value (30 μM N-AT) of the same compound?
**A.** reduced the length of the ventricular action potential; also recorded: shortened the cardiomyocyte action potential duration

**Q.** What about the “effect on arrhythmic firing induced by Chromanol 293B” value of the same compound?
**A.** restores rhythmic firing; also recorded: reversed the arrhythmic behavior

**Q.** What about the “effect on arrhythmic firing induced by Chromanol 293B” value (listed as N-arachidonoyl taurine) of the same compound?
**A.** reversed the effect

**Q.** What about the “early after depolarizations (EADs)” value (30 μM N-AT in the presence of 5 μM chromanol) of the same compound?
**A.** removed these EADs

**Q.** What about the “APD30, Change (relative change)” value (30 μM N-AT vs control) of the same compound?
**A.** 0.81 ± 0.04

**Q.** And the “APD50, Change (relative change)” value (30 μM N-AT vs control)?
**A.** 0.83 ± 0.03

**Q.** What about the “APD70, Change (relative change)” value (30 μM N-AT vs control) of the same compound?
**A.** 0.84 ± 0.03

**Q.** What about the “Amplpeak, Change” value (30 μM N-AT vs control) of the same compound?
**A.** −9 ± 1 mV

**Q.** And the “RR-interval, Change (relative change)” value (30 μM N-AT vs control)?
**A.** 0.74 ± 0.05

**Q.** What about the “Amplpeak, Change” value [1] of the same compound?
**A.** −9±1 mV

**Q.** And the “RMP, Change” value [1]?
**A.** no effect
